From ChEMBL document CHEMBL1134014, “Synthesis and biological evaluation of a sialyl Lewis X mimic with significantly improved E-selectin inhibition” (Bioorg Med Chem Lett, 2001)

Assays:
[1] = biological target: T1, E-selectin (Homo sapiens) (UniProt P16581); experiment: Relative inhibitory concentration against Selectin E to that of sLex in a static cell free ligand binding assay
T1 sequence (whole entry): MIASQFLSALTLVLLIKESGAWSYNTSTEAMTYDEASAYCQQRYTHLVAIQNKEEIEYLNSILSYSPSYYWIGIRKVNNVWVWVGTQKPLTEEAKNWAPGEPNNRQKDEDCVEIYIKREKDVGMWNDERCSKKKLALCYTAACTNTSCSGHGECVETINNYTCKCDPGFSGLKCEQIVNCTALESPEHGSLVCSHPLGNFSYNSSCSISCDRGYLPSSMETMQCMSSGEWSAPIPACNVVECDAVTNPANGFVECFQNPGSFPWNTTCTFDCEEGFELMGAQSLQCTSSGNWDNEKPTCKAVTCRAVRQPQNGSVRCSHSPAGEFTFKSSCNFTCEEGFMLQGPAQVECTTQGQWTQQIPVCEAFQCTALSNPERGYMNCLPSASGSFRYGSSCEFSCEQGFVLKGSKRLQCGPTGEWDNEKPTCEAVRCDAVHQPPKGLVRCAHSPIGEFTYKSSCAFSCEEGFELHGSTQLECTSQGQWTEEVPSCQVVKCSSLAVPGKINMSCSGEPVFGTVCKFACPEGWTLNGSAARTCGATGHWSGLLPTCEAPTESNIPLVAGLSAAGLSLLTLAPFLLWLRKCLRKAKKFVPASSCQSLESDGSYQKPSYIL

[2] = biological target: T2, E-selectin (Homo sapiens, UniProt P16581); experiment: Inhibitory concentration against Selectin E in a static cell free ligand binding assay under equilibrium conditions.
T2 sequence (P16581 whole entry): T1 sequence (whole entry)

[3] = biological target: T1, E-selectin (Homo sapiens); settings: 10uM
Description: Percent inhibition of Selectin E by the compound at a dose of 10uM

[4] = biological target: T1, E-selectin (Homo sapiens); settings: 200uM
Description: Percent inhibition of Selectin E by the compound at a dose of 200uM

[5] = biological target: T1, E-selectin (Homo sapiens); settings: 50uM
Description: Percent inhibition of Selectin E by the compound at a dose of 50uM

Relative IC50 [1]	IC50 [2] [µM]	inhibition [3] [%]	inhibition [4] [%]	inhibition [5] [%]	Structure (SMILES)
0.164					COC(=O)CCCCCCCCOC1O[C@@H](O)[C@@H](O[C@@H]2O[C@@H](CO)[C@H](O)[C@H](O[C@]3(C(=O)O)C[C@@H](O)[C@@H](NC(C)=O)[C@H]([C@@H](O)[C@H](O)CO)O3)[C@@H]2O)[C@H](O[C@@H]2O[C@@H](C)[C@@H](O)[C@H](O)[C@@H]2O)[C@@H]1NC(=O)c1ccc(OC)c(OC)c1 (some centres undefined)
0.115					C[C@@H]1O[C@@H](O[C@@H]2CCCC[C@H]2O[C@@H]2O[C@@H](CO)[C@H](O)[C@H](OC(CC3CCCCC3)C(=O)O)[C@@H]2O)[C@@H](O)[C@@H](O)[C@@H]1O (single isomer, unassigned)
1					COC(=O)CCCCCCCCO[C@@H]1O[C@@H](CO)[C@@H](O[C@@H]2O[C@@H](CO)[C@H](O)[C@H](O[C@]3(C(=O)O)C[C@@H](O)[C@@H](NC(C)=O)[C@H]([C@@H](O)[C@H](O)CO)O3)[C@@H]2O)[C@H](O[C@@H]2O[C@@H](C)[C@@H](O)[C@H](O)[C@@H]2O)[C@@H]1NC(C)=O
0.031					C[C@@H]1O[C@@H](O[C@@H]2[C@H](CO)OCC[C@H]2O[C@@H]2O[C@@H](CO)[C@H](O)[C@H](OC(CC3CCCCC3)C(=O)O)[C@@H]2O)[C@@H](O)[C@@H](O)[C@@H]1O (single isomer, unassigned)
0.03	1500	54	97	93	COC(=O)CCCCCCCCO[C@@H]1O[C@@H](CO)[C@@H](O[C@@H]2O[C@@H](CO)[C@H](O)[C@H](O[C@@H](CC3CCCCC3)C(=O)O)[C@@H]2O)[C@H](O[C@@H]2O[C@@H](C)[C@@H](O)[C@H](O)[C@@H]2O)[C@@H]1NC(=O)c1ccc(OC)c(OC)c1
